# Data taken from US20050261177A1, “Compound” (priority 2001, published 2005).
# Read-outs that look alike come from different tables or passages of the source. Numbered stars: 1 amine (or outer) side, 2 acyl side, 3 side chain; on linkers, the order of the positions; unused ones are H or OH. Bridge positions count the residues as written; N and C are the ends. Square brackets hold non-standard residues; d marks the D form. Peptide text beside a SMILES is read from it. * marks the point of attachment. hTyr(3R-OH,3'-OSO3H) = N[C@H](C(=O)O)[C@H](O)Cc1ccc(O)c(OS(=O)(=O)O)c1; X3 = O=C(c1ccc(-c2cn3nc(-c4ccc(OC5CCN(c6ccccc6)CC5)cc4)sc3n2)cc1)*; X2 = COCCCCCCN1CCN(c2ccc(-c3nn4cc(-c5ccc(C(=O)*)cc5)nc4s3)cc2)CC1; X4 = C[C@H]1CC[C@H](N2CCN(c3ccc(-c4ccc(C(=O)*)cc4)cc3)CC2)CC1; Orn(3R-OH,Nδ-CH(CH2OH)2) = N[C@H](C(=O)O)[C@H](O)CCNC(CO)CO; X1 = CCCCCOC1CCN(c2ccc(-c3nnc(-c4ccc(C(=O)*)cc4)s3)cc2)CC1; Orn(4R-OH) = O=C([C@H](C[C@@H](O)CN[*:3])N[*:1])[*:2]; Pro(3S-OH,4S-Me) = C[C@H]1CN[C@H](C(=O)O)[C@H]1O; Hyp = O=C(O)[C@@H]1C[C@@H](O)CN1
# System: Candida albicans FP-633
# Assay type: cell-based
# Procedure: In vitro antimicrobial activity of the object compound of Examples 41, 46, 53 and 56 disclosed later was determined by MICs in mouse serum as described below.
# The MICS in mouse serum were determined by the microdilution method using ICR mouse serum buffered with 20 mM HEPES buffer (pH 7.3) as a test medium. Inoculum suspension of 10^6 cells/ml were prepared by a hemocytometric procedure and diluted to obtain an inoculum size of approximately 1.0×10^3 cells/ml. Microplates were incubated at 37° C. for 24 hours in 5% CO2. The MICS were defined as the lowest concentrations at which no visible growth was observed.
# [1] = Candida albicans FP-633, ICR mouse serum buffered with 20 mM HEPES (pH 7.3), 37° C., 24 hours, 5% CO2, lowest concentration with no visible growth
"MIC (FP-633, 24 h, pH 7.3) [µg/mL]",SMILES,MIC [1] [µg/mL]
,"C[C@@H](O)[C@@H]1NC(=O)[C@@H](NC(=O)c2ccc(-c3cn4nc(-c5ccc(OC6CCN(c7ccccc7)CC6)cc5)sc4n3)cc2)C[C@@H](O)CNC(=O)[C@@H]2[C@@H](O)[C@@H](C)CN2C(=O)[C@H]([C@H](O)CCNC(CO)CO)NC(=O)[C@H]([C@H](O)Cc2ccc(O)c(OS(=O)(=O)O)c2)NC(=O)[C@@H]2C[C@@H](O)CN2C1=O [Example 41] (X3-[Orn(4R-OH)]T[Hyp][hTyr(3R-OH,3'-OSO3H)][Orn(3R-OH,Nδ-CH(CH2OH)2)][Pro(3S-OH,4S-Me)]; lactam 1-C)",<0.3
<0.3,"COCCCCCCN1CCN(c2ccc(-c3nn4cc(-c5ccc(C(=O)N[C@H]6C[C@@H](O)CNC(=O)[C@@H]7[C@@H](O)[C@@H](C)CN7C(=O)[C@H]([C@H](O)CCNC(CO)CO)NC(=O)[C@H]([C@H](O)Cc7ccc(O)c(OS(=O)(=O)O)c7)NC(=O)[C@@H]7C[C@@H](O)CN7C(=O)[C@H]([C@@H](C)O)NC6=O)cc5)nc4s3)cc2)CC1 [Example 46] (X2-[Orn(4R-OH)]T[Hyp][hTyr(3R-OH,3'-OSO3H)][Orn(3R-OH,Nδ-CH(CH2OH)2)][Pro(3S-OH,4S-Me)]; lactam 1-C)",
,"C[C@@H](O)[C@@H]1NC(=O)[C@@H](NC(=O)c2ccc(-c3ccc(N4CCN([C@H]5CC[C@H](C)CC5)CC4)cc3)cc2)C[C@@H](O)CNC(=O)[C@@H]2[C@@H](O)[C@@H](C)CN2C(=O)[C@H]([C@H](O)CCNC(CO)CO)NC(=O)[C@H]([C@H](O)Cc2ccc(O)c(OS(=O)(=O)O)c2)NC(=O)[C@@H]2C[C@@H](O)CN2C1=O [Example 53] (X4-[Orn(4R-OH)]T[Hyp][hTyr(3R-OH,3'-OSO3H)][Orn(3R-OH,Nδ-CH(CH2OH)2)][Pro(3S-OH,4S-Me)]; lactam 1-C)",<0.3
<0.3,"CCCCCOC1CCN(c2ccc(-c3nnc(-c4ccc(C(=O)N[C@H]5C[C@@H](O)CNC(=O)[C@@H]6[C@@H](O)[C@@H](C)CN6C(=O)[C@H]([C@H](O)CCNC(CO)CO)NC(=O)[C@H]([C@H](O)Cc6ccc(O)c(OS(=O)(=O)O)c6)NC(=O)[C@@H]6C[C@@H](O)CN6C(=O)[C@H]([C@@H](C)O)NC5=O)cc4)s3)cc2)CC1 [Example 56] (X1-[Orn(4R-OH)]T[Hyp][hTyr(3R-OH,3'-OSO3H)][Orn(3R-OH,Nδ-CH(CH2OH)2)][Pro(3S-OH,4S-Me)]; lactam 1-C)",
